From patent US20230110128A1, “USE OF ANTIBODY DRUG CONJUGATES COMPRISING TUBULIN DISRUPTING AGENTS TO TREAT SOLID TUMOR” (Seagen Inc., priority 2018, published 2023)
Non-standard residues stand in square brackets, D forms with d. Residues, ends and D or L forms follow the SMILES beside them. *: point of attachment. Dolaproine = CO[C@@H]([C@@H]1CCCN1)[C@@H](C)C(=O)O; Dil = CC[C@H](C)[C@H](NC)[C@@H](CC(=O)O)OC; X1 = C[C@@H](N*)[C@@H](O)c1ccccc1; NMeV = CN[C@H](C(=O)O)C(C)C

How the values were obtained:
[1] = test system: MiaPaca-CHOP-luciferase cells subcutaneously engrafted; test: Tumoral CHOP luciferase signal in engrafted MiaPaca-CHOP-luciferase tumors; assay type: in vivo, NOD/SCID/gamma-chain deficient mice; conditions: intratumorally; MMAE 0.36 mg/kg, vincristine 1.0 mg/kg, Paclitaxel 10 mg/kg
Method: MiaPaca-CHOP-luciferase cells were subcutaneously engrafted into NOD/SCID/gamma-chain deficient mice. Subcutaneous tumors were treated intratumorally with MMAE (0.36 mg/kg), vincristine (1.0 mg/kg), and Paclitaxel (10 mg/kg) and tumoral luciferase signal was monitored over time.

[2] = test system: PC-3 prostate tumor cells; test: ATP secretion from PC-3 cells; assay type: cell-based
Method: PC-3 prostate tumor cells were also treated with MMAE, Vincristine, or Paclitaxel. Supernatant was collected after 16 hours of treatment, and analyzed for ATP secretion. […] PC-3 cells were treated for 24 hours with an MMAE-containing ADC (SGN-LIV1A) or MMAE and harvested in RIPA buffer for western blot analysis (FIG. 3C).

[3] = test system: PC-3 cells; test: HMGB1 release from PC-3 cells; assay type: cell-based; conditions: FIG. 3E
[4] = test system: A2058 and SK-MEL-5 tumor cells co-cultured with macrophages; test: Cytokine and chemokine production in macrophage co-culture with treated A2058 and SK-MEL-5 cells; assay type: cell-based; conditions: A2058 and SK-MEL-5 co-culture supernatant 24 hours, ELISA, normalized to untreated
Method: Supernatant from the co-culture of macrophages and dying A2058 and SK-MEL-5 tumor cells was harvested 24 hours later and assayed for levels of cytokine and chemokine production by ELISA and normalized to macrophages that were co-cultured with untreated tumor cells.

[5] = test system: BxPC3 and HPAFII tumor cells co-cultured with macrophages; test: Cytokine and chemokine production in macrophage co-culture with treated BxPC3 and HPAFII cells; assay type: cell-based; conditions: BxPC3 and HPAFII co-culture supernatant 24 hours, ELISA, normalized to untreated
Method: Supernatant from the co-culture of macrophages and dying tumor cells was harvested 24 hours later and assayed for levels of cytokine and chemokine production by ELISA and normalized to macrophages that were co-cultured with untreated tumor cells.

[6] = test system: T-24 (bladder) cells; test: ATP secretion from T-24 cells; assay type: cell-based; conditions: 48 hours
Method: T-24 (bladder) cells were treated with MMAE or an MMAE-containing ADC (ASG-22ME) for 48 hours and analyzed for ATP secretion. […] T-24 cells were also treated with MMAE, an MMAE-containing ADC (ASG22ME, Enfortumab vedotin), vincristine, and Paclitaxel for 24 hours. Cells were washed and harvested, and subsequently co-cultured with the enriched macrophages as above. Macrophages were harvested 4 days after co-culture and assayed for immune activation by flow cytometry. Level of antigen-presentation (as measured by frequency of MHCII-expressing macrophages) was quantified and normalized to macrophages that were co-cultured with untreated tumor cells. […] Supernatant from the co-culture of macrophages and dying T-24 tumor cells was harvested after 24 hours and assayed for levels of cytokine and chemokine production by ELISA and normalized to macrophages that were co-cultured with untreated tumor cells.

## CC[C@H](C)[C@@H]([C@@H](CC(=O)N1CCC[C@H]1[C@H](OC)[C@@H](C)C(=O)N[C@H](C)[C@@H](O)c1ccccc1)OC)N(C)C(=O)[C@@H](NC(=O)[C@@H](NC)C(C)C)C(C)C [MMAE, monomethyl auristatin E] (H-[NMeV]V[Dil][Dolaproine]-X1)
[1]
  Severe ER stress in engrafted tumors (tumoral luciferase signal over time): rapidly elicited severe ER stress
[2]; FIG. 3D
  Release of ATP: release of ATP
[2]; supernatant after 16 hours
  ATP secretion: robust ATP secretion
[3]
  Release of HMGB1: release of ATP and HMGB1
[4]
  Cytokine and chemokine production: increase of the indicated cytokines and chemokines that was more robust than treatment with Paclitaxel
[5]
  Cytokine and chemokine production: increase of the indicated cytokines and chemokines that was more robust than treatment with Paclitaxel
[6]
  ATP secretion: potent ATP secretion
